The source of these data is patent publication US20070167466A1, “"Pyrazolo [4,3-d]pyrimidines, processes for their preparation and methods of use"” (priority 2003, published 2007).

Test [1] concerns the target CDC2a (cdc2a-MS protein, plant Cdc2-kinase) (Medicago sativa, UniProt P24923). It is filed as biochemical. How it is done: Enzyme activity bound to p13^suc1-agarose was measured by phosphorylation of histone H1 substrate protein in the presence of various concentrations of (1) 7-furfurylamino-3-methylpyrazolo[4,3-d]pyrimidine, (2) 7-benzylamino-3-isopropylpyrazolo[4,3-d]pyrimidine, (3) 7-(3-chloroanilino)-3-isopropylpyrazolo[4,3-d]pyrimidine, (4) 7-(3-hydroxybenzyl)amino-3-isopropylpyrazolo[4,3-d]pyrimidine.
The quantification of radioactivity incorporated into histone H1 or myelin basic protein was undertaken using Phosphoimager (original gel images shown on FIG. 1). IC50 were calculated from dose-response curves.

Test [2] has as its system K562 (human chronic myeloblastic leukemia). The experiment in a line: In vitro cytotoxic activity, Calcein AM, three days. The test is classed as cell-based. The following applies: read-out: K-562 IC50.
In test [3] the test system is MCF7 (human breast adenocarcinoma). The test is described as above. It is filed as cell-based.
In test [4] the target is CDK2 (p33^cdk2, cyclin E) (Homo sapiens, UniProt P24941). The experiment in a line: CDK inhibition assay, p33^cdk2 kinase, histone H1 phosphorylation.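 Also: Baculovirus-expressed kinase/cyclin complex from Sf9 cell extract, 10 min at 30 °C, phosphoproteins separated by SDS gel and quantified by image analysis, activity relative to DMSO control.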 The conditions noted are these: read-out: CDK2 IC50; 15 μM ATP, histone H1, 30° C.
Protocol: Cyclin-dependent kinases (p34^cdc2, p33^cdk2) and cyclins (cyclin B, E) are produced in Sf9 insect cells coinfected with appropriate baculoviral constructs. The cells are harvested 68-72 hrs post infection in lysis buffer for 30 min on ice and the soluble fraction is recovered by centrifugation at 14.000 g for 10 min. The protein extract is stored at −80° C.
Lysis buffer: 50mM Tris pH 7.4, 150mM NaCl, 5 mM EDTA, 20 mM NaF, 1% Tween, 1 mM DTT, 0.1 mM PMSF, leupeptine, aprotonine.
To carry out experiments on kinetics under linear conditions, the final point test system for kinase activity measurement is used. The kinase is added to reaction mixture in such a way as to obtain linear activity with respect to the concentration of enzyme and with respect to time.
Kinase activity is determined at 30° C. in the kinase buffer.
Tested compounds are usually dissolved to 100 mM solutions in DMSO, final concentration of DMSO in reaction mixture never exceeds 1%. The controls contain suitable dilutions of DMSO.
After 10 min, addition 3×SDS sample buffer stops the incubations. Phosphorylated proteins are separated electrophoretically using 10% SDS polyacrylamide gel. The measurement of kinase activity is done using digital image analysis.
The kinase activity is expressed as a percentage of maximum activity, the apparent inhibition constants are determined by graphic analysis.
Kinase buffer: 50 mM Hepes pH 7.4, 10 mM MgCl2, 5 mM EGTA, 10 mM
Test [5] has as its target T1, CDK1 (p34^cdc2, cyclin B) (Homo sapiens, UniProt P06493).
T1 construct: made in house; host or cells: Sf9 insect cells (baculovirus co-infection)
The test can be described thus: CDK inhibition assay, p34^cdc2 kinase, histone H1 phosphorylation. It is filed as biochemical. The following applies: 15 μM ATP, histone H1, 30° C. As to the method:
The controls contain suitable dilutions of DMSO.
2-glycerolphosphate, 1 mM NaF, 1 mM DTT

In the next test the target is MMK1 protein kinase (Vicia faba, UniProt A0AAV1B7B8). The experiment in a line: Plant MMK1 protein kinase inhibition assay. It is filed as biochemical. The conditions noted are these: plant kinase purified from Vicia faba extracts. How it is done: Protein extraction and purification of pant CDK by binding to p13^suc1-beads or immunopurification with an antibody specific to the cdc2a-MS protein was carried out as described previously (Bögre et al. 1997, Plant Physiol. 113, 1997, 841-852). The MMK1 protein kinase was purified with a specific antibody from Vicia faba extracts as described by Bögre et al. 1997a, Plant Cell 9, 75-83). Protein kinase activity was measured as described above in Example 19. The quantification of radioactivity incorporated into histone H1 or myelin basic protein was undertaken using Phosphoimager (original gel images shown on FIG. 1). IC50 were calculated from dose-response curves. The drugs inhibited the activity of immunopurified Vicia faba and alfalfa Cdc2-kinase. […] In contrast to the regular bipolar spindle in untreated cell, in drug-treated metaphase cells abnormally short and dense kinetochore microtubule fibres were observed. These microtubules were randomly arranged in the vicinity of the kinetochores and connected the chromosomes. Thus the chromosomes were not aligned on the metaphase plate but were arranged in a circle, with kinetochores pointing inwards and chromosome arms pointing outwards. γ-tubulin, which plays a role in microtubule nucleation, also localised to the centre of the monopolar spindle.

In test [6] the test system is root meristem cells of V. faba. The experiment in a line: Antimitotic and apoptotic effects in plant root meristem cells. The test is classed as cell-based, Vicia faba. The conditions noted are these: high doses.

pIC50: −log10 of the molar value.

T1 sequence (P06493 whole entry, species assumed): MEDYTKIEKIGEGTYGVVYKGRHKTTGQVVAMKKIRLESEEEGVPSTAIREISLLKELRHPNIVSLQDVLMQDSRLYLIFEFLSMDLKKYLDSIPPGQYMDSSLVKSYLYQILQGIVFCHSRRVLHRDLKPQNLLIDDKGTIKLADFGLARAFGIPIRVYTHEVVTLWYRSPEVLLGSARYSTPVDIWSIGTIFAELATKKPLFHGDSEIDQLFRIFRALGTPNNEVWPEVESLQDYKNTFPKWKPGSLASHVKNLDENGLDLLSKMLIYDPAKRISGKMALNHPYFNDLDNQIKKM
T1 sequence (P14635 whole entry partner, species assumed): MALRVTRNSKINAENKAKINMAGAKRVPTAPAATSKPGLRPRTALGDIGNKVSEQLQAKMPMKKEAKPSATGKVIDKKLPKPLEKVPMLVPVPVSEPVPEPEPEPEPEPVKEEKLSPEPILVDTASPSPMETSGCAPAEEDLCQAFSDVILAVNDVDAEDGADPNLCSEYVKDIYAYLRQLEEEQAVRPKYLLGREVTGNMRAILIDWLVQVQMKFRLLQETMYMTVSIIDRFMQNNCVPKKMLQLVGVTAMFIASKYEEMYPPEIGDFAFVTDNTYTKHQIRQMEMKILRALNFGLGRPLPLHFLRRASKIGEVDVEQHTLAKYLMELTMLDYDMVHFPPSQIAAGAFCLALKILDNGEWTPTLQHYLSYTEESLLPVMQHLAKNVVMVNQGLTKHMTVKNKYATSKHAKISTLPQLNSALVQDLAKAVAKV
MMK1 protein kinase, sequence (A0AAV1B7B8 entry or part of it): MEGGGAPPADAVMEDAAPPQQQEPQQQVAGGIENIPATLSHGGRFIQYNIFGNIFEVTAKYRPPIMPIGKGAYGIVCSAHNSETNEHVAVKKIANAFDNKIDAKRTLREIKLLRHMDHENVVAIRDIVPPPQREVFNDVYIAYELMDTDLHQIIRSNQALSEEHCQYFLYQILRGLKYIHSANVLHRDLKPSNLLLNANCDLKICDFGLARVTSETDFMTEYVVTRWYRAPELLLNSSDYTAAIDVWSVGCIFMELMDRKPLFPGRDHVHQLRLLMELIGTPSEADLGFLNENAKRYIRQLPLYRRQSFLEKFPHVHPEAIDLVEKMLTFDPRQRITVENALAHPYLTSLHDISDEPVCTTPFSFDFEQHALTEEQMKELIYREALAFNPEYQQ
CDC2a (cdc2a-MS protein, plant Cdc2-kinase), sequence (P24923 whole entry): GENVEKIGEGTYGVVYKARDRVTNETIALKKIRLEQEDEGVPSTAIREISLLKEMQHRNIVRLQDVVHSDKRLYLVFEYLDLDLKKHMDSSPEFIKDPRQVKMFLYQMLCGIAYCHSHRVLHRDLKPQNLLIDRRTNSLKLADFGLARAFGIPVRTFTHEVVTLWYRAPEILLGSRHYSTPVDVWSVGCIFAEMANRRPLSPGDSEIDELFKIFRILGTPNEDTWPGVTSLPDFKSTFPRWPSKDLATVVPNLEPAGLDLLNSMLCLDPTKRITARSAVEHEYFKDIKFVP

The term pIC50 denotes −log10 of the IC50, conventionally taken in molar units. With `CC(C)c1n[nH]c2c(NC3CCCCC3N)ncnc12` (stereo not shown) [(2-aminocyclohexyl)amino / isopropyl], the pIC50 is less than 4.00 in test [1]; less than 3.78 in test [2]; less than 3.78 in test [3]; less than 4.00 in test [4]; less than 4.00 in test [5]; less than 4.00 on MMK1 protein kinase.
Take `CC[C@H](CO)Nc1nc(NCc2ccccc2)c2ncn(C(C)C)c2n1` [roscovitine]: the “apoptosis in plant cells” value in test [6] is “induced apoptosis”.
